Source: PubChem BioAssay (NCI)
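A five-concentration, 48-hour dose response in 96-well plates underlies each endpoint, interpolated linearly between surrounding concentrations. TGI: total growth inhibition.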

Columns and labels:
Assay in all cases: inhibition of tumour cell growth, NCI panel, 48 h
786-0 renal = system: 786-0 renal
A549 NSCLC = system: A549 NSCLC
ACHN renal = system: ACHN renal
BT-549 breast = system: BT-549 breast
CAKI-1 renal = system: CAKI-1 renal
CCRF-CEM leukemia = system: CCRF-CEM leukemia
COLO 205 colon = system: COLO 205 colon
DU-145 prostate = system: DU-145 prostate
EKVX NSCLC = system: EKVX NSCLC
HCC-2998 colon = system: HCC-2998 colon
HCT-116 colon = system: HCT-116 colon
HCT-15 colon = system: HCT-15 colon
HOP-62 NSCLC = system: HOP-62 NSCLC
HOP-92 NSCLC = system: HOP-92 NSCLC
HT29 colon = system: HT29 colon
K-562 leukemia = system: K-562 leukemia
KM12 colon = system: KM12 colon
M14 melanoma = system: M14 melanoma
MALME-3M melanoma = system: MALME-3M melanoma
MCF7 breast = system: MCF7 breast
MDA-MB-231 breast = system: MDA-MB-231 breast
MDA-MB-435 = system: MDA-MB-435
MDA-N = system: MDA-N
MOLT-4 leukemia = system: MOLT-4 leukemia
NCI-H226 lung = system: NCI-H226 lung
NCI-H23 lung = system: NCI-H23 lung
NCI-H460 lung = system: NCI-H460 lung
NCI-H522 lung = system: NCI-H522 lung
NCI/ADR-RES ovarian = system: NCI/ADR-RES ovarian
OVCAR-3 ovarian = system: OVCAR-3 ovarian
OVCAR-4 ovarian = system: OVCAR-4 ovarian
OVCAR-5 ovarian = system: OVCAR-5 ovarian
OVCAR-8 ovarian = system: OVCAR-8 ovarian
PC-3 prostate = system: PC-3 prostate
RPMI-8226 leukemia = system: RPMI-8226 leukemia
RXF 393 renal = system: RXF 393 renal
SF-268 CNS = system: SF-268 CNS
SK-MEL-2 melanoma = system: SK-MEL-2 melanoma
SN12C renal = system: SN12C renal
SNB-19 CNS = system: SNB-19 CNS
SR leukemia = system: SR leukemia
SW-620 colon = system: SW-620 colon
T-47D breast = system: T-47D breast
TK-10 renal = system: TK-10 renal
U251 CNS = system: U251 CNS
UACC-257 melanoma = system: UACC-257 melanoma
UO-31 renal = system: UO-31 renal
A498 renal = system: A498 renal
HL-60(TB) leukemia = system: HL-60(TB) leukemia
HS 578T breast = system: HS 578T breast
IGROV1 ovarian = system: IGROV1 ovarian
LOX IMVI melanoma = system: LOX IMVI melanoma
SF-295 CNS = system: SF-295 CNS
SF-539 CNS = system: SF-539 CNS
SK-MEL-28 melanoma = system: SK-MEL-28 melanoma
SK-OV-3 ovarian = system: SK-OV-3 ovarian
SNB-75 CNS = system: SNB-75 CNS
UACC-62 melanoma = system: UACC-62 melanoma

In the case of `NC(=O)N/N=C1\CCCCc2ccccc21`, the TGI (786-0 renal) is reported as greater than 10 µM, the TGI (A549 NSCLC) is reported as greater than 10 µM and the TGI (ACHN renal) is reported as greater than 10 µM. It also gave a TGI (BT-549 breast) greater than 10 µM, a TGI (CAKI-1 renal) greater than 10 µM and a TGI (CCRF-CEM leukemia) greater than 10 µM. The TGI (COLO 205 colon) was greater than 10 µM, the TGI (DU-145 prostate) was greater than 10 µM and the TGI (EKVX NSCLC) was greater than 10 µM. For the same molecule, the TGI (HCC-2998 colon) was greater than 10 µM, the TGI (HCT-116 colon) was greater than 10 µM and the TGI (HCT-15 colon) was greater than 10 µM. The TGI (HOP-62 NSCLC) was greater than 10 µM, the TGI (HOP-92 NSCLC) was greater than 10 µM and the TGI (HT29 colon) was greater than 10 µM. The TGI (K-562 leukemia) was greater than 10 µM, the TGI (KM12 colon) was greater than 10 µM and the TGI (M14 melanoma) was greater than 10 µM. For the same molecule, the TGI (MALME-3M melanoma) was greater than 10 µM, the TGI (MCF7 breast) was greater than 10 µM and the TGI (MDA-MB-231 breast) was greater than 10 µM. The TGI (MDA-MB-435) was greater than 10 µM, the TGI (MDA-N) was greater than 10 µM and the TGI (MOLT-4 leukemia) was greater than 10 µM. For the same molecule, the TGI (NCI-H226 lung) was greater than 10 µM, the TGI (NCI-H23 lung) was greater than 10 µM and the TGI (NCI-H460 lung) was greater than 10 µM. For the same molecule, the TGI (NCI-H522 lung) was greater than 10 µM, the TGI (NCI/ADR-RES ovarian) was greater than 10 µM and the TGI (OVCAR-3 ovarian) was greater than 10 µM. The TGI (OVCAR-4 ovarian) was greater than 10 µM, the TGI (OVCAR-5 ovarian) was greater than 10 µM and the TGI (OVCAR-8 ovarian) was greater than 10 µM. For the same molecule, the TGI (PC-3 prostate) was greater than 10 µM, the TGI (RPMI-8226 leukemia) was greater than 10 µM and the TGI (RXF 393 renal) was greater than 10 µM. For the same molecule, the TGI (SF-268 CNS) was greater than 10 µM, the TGI (SK-MEL-2 melanoma) was greater than 10 µM and the TGI (SN12C renal) was greater than 10 µM. It also gave a TGI (SNB-19 CNS) greater than 10 µM, a TGI (SR leukemia) greater than 10 µM and a TGI (SW-620 colon) greater than 10 µM. The TGI (T-47D breast) was greater than 10 µM, the TGI (TK-10 renal) was greater than 10 µM and the TGI (U251 CNS) was greater than 10 µM. For the same molecule, the TGI (UACC-257 melanoma) was greater than 10 µM and the TGI (UO-31 renal) was greater than 10 µM.

In the case of `CCCNC(=O)c1cc(NC(=O)c2cc(NC(=O)/C=C/c3ccccc3)c(OC)c(OC)c2)c(OC)c(OC)c1`, the TGI (786-0 renal) is reported as 18.6 µM, the TGI (A498 renal) is reported as 30.8 µM and the TGI (A549 NSCLC) is reported as 23.9 µM. It also gave a TGI (ACHN renal) of 36.8 µM, a TGI (BT-549 breast) of 53.4 µM and a TGI (CCRF-CEM leukemia) greater than 100 µM. It also gave a TGI (COLO 205 colon) greater than 100 µM, a TGI (DU-145 prostate) greater than 100 µM and a TGI (EKVX NSCLC) of 54.1 µM. It also gave a TGI (HCT-116 colon) greater than 100 µM, a TGI (HCT-15 colon) greater than 100 µM and a TGI (HL-60(TB) leukemia) greater than 100 µM. It also gave a TGI (HOP-62 NSCLC) of 19.4 µM, a TGI (HS 578T breast) of 6.18 µM and a TGI (HT29 colon) of 66.5 µM. For the same molecule, the TGI (IGROV1 ovarian) was 31.7 µM, the TGI (K-562 leukemia) was greater than 100 µM and the TGI (KM12 colon) was 41.8 µM. For the same molecule, the TGI (LOX IMVI melanoma) was 8.35 µM, the TGI (M14 melanoma) was greater than 100 µM and the TGI (MALME-3M melanoma) was 8.74 µM. It also gave a TGI (MCF7 breast) of 28.5 µM, a TGI (MDA-MB-231 breast) of 6.27 µM and a TGI (MDA-MB-435) of 66.5 µM. The TGI (MDA-N) was greater than 100 µM, the TGI (MOLT-4 leukemia) was greater than 100 µM and the TGI (NCI-H226 lung) was 0.17 µM. The TGI (NCI-H23 lung) was greater than 100 µM, the TGI (NCI-H460 lung) was 82.5 µM and the TGI (NCI-H522 lung) was 23.1 µM. For the same molecule, the TGI (NCI/ADR-RES ovarian) was 56 µM, the TGI (OVCAR-3 ovarian) was 17.9 µM and the TGI (OVCAR-4 ovarian) was 8.05 µM. The TGI (OVCAR-5 ovarian) was 57.1 µM, the TGI (OVCAR-8 ovarian) was 17 µM and the TGI (PC-3 prostate) was 33.5 µM. The TGI (RPMI-8226 leukemia) was greater than 100 µM, the TGI (RXF 393 renal) was 8.31 µM and the TGI (SF-268 CNS) was 8.68 µM. It also gave a TGI (SF-295 CNS) of 11.2 µM, a TGI (SF-539 CNS) of 20.4 µM and a TGI (SK-MEL-2 melanoma) of 31.2 µM. It also gave a TGI (SK-MEL-28 melanoma) of 67.7 µM, a TGI (SK-OV-3 ovarian) of 25.1 µM and a TGI (SN12C renal) of 0.879 µM. It also gave a TGI (SNB-19 CNS) of 21.6 µM, a TGI (SNB-75 CNS) of 7.76 µM and a TGI (SR leukemia) greater than 100 µM. For the same molecule, the TGI (SW-620 colon) was greater than 100 µM, the TGI (TK-10 renal) was 40.1 µM and the TGI (U251 CNS) was 13.9 µM. For the same molecule, the TGI (UACC-257 melanoma) was 52.2 µM, the TGI (UACC-62 melanoma) was 0.597 µM and the TGI (UO-31 renal) was 20.7 µM.
